# Data taken from US20050107386A1, “Methods of treating diseases and disorders by targeting multiple kinases” (priority 2003, published 2005).
# Assays:
# Format in all cases: biochemical
# Yes(h) = Yes(h) (Homo sapiens, UniProt P07947); test: Yes(h) kinase assay; conditions: for Inhibitory activity (% of control), Yes(h): 3 μM, percent of control kinase activity
# Description: (§1) Six compounds (presumptive single agents) were tested against a panel of 50 kinases. The results are presented in Table 2; numbers for each kinase indicate the percent of control kinase activity in the presence of a 3μM concentration of the indicated agent.
# (§2) Agents that target two or more different kinases are useful in the methods of the invention as described elsewhere herein. Such compounds may be identified, and their effect on certain kinases may be identified, using the assays briefly described below in Examples 4-83. Each of these assays was carried out as described in Davies et al., Biochem. J., 351:95-105 (2000). All assays were carried out at 10 μM ATP unless otherwise noted.
# (§3) In a final reaction volume of 25 μl, Yes(h) (5-10 mU) is incubated with 8 mM MOPS pH 7.0, 0.2 mM EDTA, 0.1 mg/ml poly(Glu, Tyr) 4:1, 10 mM MgAcetate and [γ-^33P-ATP] (Specific activity approx. 500 cpm/pmol, concentration as required). The reaction is initiated by the addition of Mg^2+ [γ-^33P-ATP]. After incubation for 40 minutes at room temperature, the reaction is stopped by the addition of 5 μl of a 3% phosphoric acid solution. 10 μl of the reaction is then spotted onto a Filtermat A and washed three times for 5 minutes in 75 mM phosphoric acid and once in methanol prior to drying and scintillation counting.
# MAPK2(h) = MAPK2(h) (Homo sapiens, UniProt P28482); test: MAPK2(h) kinase assay; conditions: 3 μM; percent of control kinase activity
# MAPK2(h), sequence (P28482 whole entry): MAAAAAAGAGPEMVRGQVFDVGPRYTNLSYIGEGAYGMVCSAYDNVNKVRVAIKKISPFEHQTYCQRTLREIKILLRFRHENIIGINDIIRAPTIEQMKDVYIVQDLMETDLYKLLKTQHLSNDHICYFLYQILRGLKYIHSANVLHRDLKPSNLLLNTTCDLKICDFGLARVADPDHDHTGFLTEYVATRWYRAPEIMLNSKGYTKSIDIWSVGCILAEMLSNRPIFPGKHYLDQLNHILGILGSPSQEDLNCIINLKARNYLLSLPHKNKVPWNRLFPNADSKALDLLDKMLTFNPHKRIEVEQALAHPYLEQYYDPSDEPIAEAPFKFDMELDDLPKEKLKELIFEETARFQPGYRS
# Description: as §1, §2
# (§4) In a final reaction volume of 25 μl, MAPK2(h) (5-10 mU) is incubated with 25 mM Tris pH 7.5, 0.02 mM EGTA, 0.33 mg/ml myelin basic protein, 10 mM MgAcetate and [γ-^33P-ATP] (specific activity approx. 500 cpm/pmol, concentration as required). The reaction is initiated by the addition of Mg^2+ [γ-^33P-ATP]. After incubation for 40 minutes at room temperature, the reaction is stopped by the addition of 5 μl of a 3% phosphoric acid solution. 10 μl of the reaction is then spotted onto a P30 filtermat and washed three times for 5 minutes in 75 mM phosphoric acid and once in methanol prior to drying and scintillation counting.
# PAK2(h) = PAK2(h) (Homo sapiens, UniProt Q13177); test: PAK2(h) kinase assay; conditions: 3 μM; percent of control kinase activity
# PAK2(h), sequence (Q13177 whole entry): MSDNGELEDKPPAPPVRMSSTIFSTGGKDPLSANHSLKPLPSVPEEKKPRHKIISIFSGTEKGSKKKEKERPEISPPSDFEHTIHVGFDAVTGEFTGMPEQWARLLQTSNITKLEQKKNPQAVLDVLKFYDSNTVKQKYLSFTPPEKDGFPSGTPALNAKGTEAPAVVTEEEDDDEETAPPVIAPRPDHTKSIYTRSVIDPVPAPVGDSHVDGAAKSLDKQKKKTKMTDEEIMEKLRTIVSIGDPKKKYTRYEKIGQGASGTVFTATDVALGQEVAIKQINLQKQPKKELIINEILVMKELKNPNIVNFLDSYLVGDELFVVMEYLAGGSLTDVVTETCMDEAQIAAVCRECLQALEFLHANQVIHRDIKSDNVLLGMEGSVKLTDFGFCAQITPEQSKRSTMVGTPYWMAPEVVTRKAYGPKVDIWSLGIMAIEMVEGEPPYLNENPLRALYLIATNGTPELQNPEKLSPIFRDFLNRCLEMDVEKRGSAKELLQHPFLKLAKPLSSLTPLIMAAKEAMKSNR
# Description: as §1, §2
# as §3, with “PAK2(h)” for “Yes(h)”, “30 μM […] (SEQ ID NO:8),” for “0.1 mg/ml poly(Glu, Tyr) 4:1,”, “(specific” for “(Specific”, “P30 filtermat” for “Filtermat A”
# PKCε(h) = molecular target: T1, PKCε(h) (Homo sapiens, UniProt Q02156); test: PKCε(h) kinase assay; conditions: 3 μM; percent of control kinase activity
# T1 sequence (Q02156 1-737): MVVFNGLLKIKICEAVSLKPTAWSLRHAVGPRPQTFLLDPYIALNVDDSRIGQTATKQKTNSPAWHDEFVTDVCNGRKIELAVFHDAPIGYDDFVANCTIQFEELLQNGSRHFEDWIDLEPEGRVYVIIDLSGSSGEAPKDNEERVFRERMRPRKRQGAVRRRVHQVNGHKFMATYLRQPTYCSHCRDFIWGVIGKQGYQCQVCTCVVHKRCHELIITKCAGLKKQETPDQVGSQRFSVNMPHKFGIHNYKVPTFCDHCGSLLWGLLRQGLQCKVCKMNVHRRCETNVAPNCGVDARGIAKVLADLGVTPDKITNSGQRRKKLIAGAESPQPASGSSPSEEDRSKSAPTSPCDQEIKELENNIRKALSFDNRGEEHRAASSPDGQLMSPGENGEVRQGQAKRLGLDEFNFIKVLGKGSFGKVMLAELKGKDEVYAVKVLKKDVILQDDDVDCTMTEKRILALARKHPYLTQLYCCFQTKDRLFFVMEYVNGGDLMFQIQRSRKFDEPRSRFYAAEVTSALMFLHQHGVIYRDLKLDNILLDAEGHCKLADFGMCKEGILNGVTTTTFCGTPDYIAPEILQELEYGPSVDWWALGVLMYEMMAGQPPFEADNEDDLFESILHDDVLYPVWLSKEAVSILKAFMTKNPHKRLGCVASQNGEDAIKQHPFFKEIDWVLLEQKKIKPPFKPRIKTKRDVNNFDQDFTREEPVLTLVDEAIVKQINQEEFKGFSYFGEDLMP
# Description: as §1, §2
# as §4, with “μl, PKCε(h)” for “μl, MAPK2(h)”, “with 20” for “with 25”, “mM Hepes” for “mM Tris”, “pH 7.4, 0.03% Triton X-100, 0.1” for “pH 7.5, 0.02 mM EGTA, 0.33”, “mg/ml phosphatidylserine, 10 μg/ml diacylglycerol, 50 μM […] (SEQ ID NO: 18),” for “mg/ml myelin basic protein,”, “[γ-^33P-ATP] (Specific” for “[γ-^33P-ATP] (specific”
# Rsk3(h) = Rsk3(h) (Homo sapiens, UniProt Q15349); test: Rsk3(h) kinase assay; conditions: 3 μM; percent of control kinase activity
# Rsk3(h), sequence (Q15349 whole entry): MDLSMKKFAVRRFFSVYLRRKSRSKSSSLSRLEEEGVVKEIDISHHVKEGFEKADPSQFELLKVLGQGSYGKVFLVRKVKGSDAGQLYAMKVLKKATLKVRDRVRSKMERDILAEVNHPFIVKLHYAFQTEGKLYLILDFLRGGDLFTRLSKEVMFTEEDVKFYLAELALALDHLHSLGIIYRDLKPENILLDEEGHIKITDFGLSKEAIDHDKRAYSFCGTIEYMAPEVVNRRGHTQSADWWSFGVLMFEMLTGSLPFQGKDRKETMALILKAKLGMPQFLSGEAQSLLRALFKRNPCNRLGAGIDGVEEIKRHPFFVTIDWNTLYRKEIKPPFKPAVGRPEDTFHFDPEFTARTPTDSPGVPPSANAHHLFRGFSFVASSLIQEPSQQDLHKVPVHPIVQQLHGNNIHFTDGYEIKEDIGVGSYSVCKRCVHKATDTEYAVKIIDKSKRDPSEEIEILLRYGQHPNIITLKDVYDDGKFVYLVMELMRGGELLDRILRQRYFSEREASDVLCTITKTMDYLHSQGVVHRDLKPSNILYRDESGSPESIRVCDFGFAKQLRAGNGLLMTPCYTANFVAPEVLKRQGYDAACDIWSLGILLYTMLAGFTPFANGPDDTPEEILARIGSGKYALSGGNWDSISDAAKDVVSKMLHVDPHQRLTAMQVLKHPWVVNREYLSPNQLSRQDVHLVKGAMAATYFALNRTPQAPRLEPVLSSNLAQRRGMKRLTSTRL
# Description: as §1, §2
# as §3, with “Rsk3 (h)” for “Yes(h)”, “30 μM […] (SEQ ID NO:11),” for “0.1 mg/ml poly(Glu, Tyr) 4:1,”, “(specific” for “(Specific”, “P30 filtermat” for “Filtermat A”
# Yes(h), sequence (P07947 whole entry): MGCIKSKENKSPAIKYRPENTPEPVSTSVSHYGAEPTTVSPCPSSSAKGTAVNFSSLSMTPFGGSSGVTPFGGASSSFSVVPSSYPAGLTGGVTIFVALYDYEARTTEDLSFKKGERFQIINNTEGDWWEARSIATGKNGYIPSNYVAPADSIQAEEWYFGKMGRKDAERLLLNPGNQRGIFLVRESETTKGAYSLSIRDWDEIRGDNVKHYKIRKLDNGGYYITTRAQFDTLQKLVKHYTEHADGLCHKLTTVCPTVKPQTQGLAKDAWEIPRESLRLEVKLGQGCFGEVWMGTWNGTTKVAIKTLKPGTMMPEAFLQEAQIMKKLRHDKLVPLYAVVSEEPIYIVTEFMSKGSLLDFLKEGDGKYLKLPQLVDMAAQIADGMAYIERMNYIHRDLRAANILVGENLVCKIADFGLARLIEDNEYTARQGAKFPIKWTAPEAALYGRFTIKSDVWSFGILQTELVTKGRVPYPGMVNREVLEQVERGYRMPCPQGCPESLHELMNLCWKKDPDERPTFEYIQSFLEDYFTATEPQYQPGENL
Compound,"Inhibitory activity (% of control), Yes(h) (Yes(h))","Inhibitory activity (% of control), MAPK2(h) (MAPK2(h))","Inhibitory activity (% of control), PAK2(h) (PAK2(h))","Inhibitory activity (% of control), PKCε(h) (PKCε(h))","Inhibitory activity (% of control), Rsk3(h) (Rsk3(h))","inhibitory activity against Yes, in words (Yes(h); summary of Table 2)"
"COc1ccc2cc(-c3n[nH]c4ccc(-c5n[nH]c(CN6CCOCC6)n5)cc34)ccc2c1 [CC001, 3-(6-Methoxynaphthalen-2-yl)-5-(5-Morpholin-4-Ylmethyl-1H-[1,2,4]Triazol-3-yl)-1H-Indazole]",2 % of control,0 % of control,68 % of control,82 % of control,4 % of control,
"CC(C)Cc1nc(-c2ccc3[nH]nc(-c4ccc5cc(OCCN6CCCC6)ccc5c4)c3c2)n[nH]1 [CC002, 5-(5-Isobutyl-1H-[1,2,4]Triazol-3-yl)-3-[6-(2-Pyrrolidin-1-yl-Ethoxy)-Naphthalen-2-yl]-1H-Indazole]",−3 % of control,2 % of control,21 % of control,58 % of control,5 % of control,
"CC(C)(C)Cc1nc(-c2ccc3[nH]nc(-c4ccc5cc(OCc6ccccn6)ccc5c4)c3c2)n[nH]1 [CC004, 5-[5-(2,2-Dimethyl-propyl)-1H-[1,2,4]triazol-3-yl]-3-[6-(pyridine-2-ylmethoxy)-naphthalen-2-yl]-1H-indazole]",24 % of control,1 % of control,62 % of control,105 % of control,43 % of control,somewhat less inhibitory activity
"CCN1CCC[C@H]1COc1ccc2cc(-c3n[nH]c4ccc(-c5nc(CC(C)(C)C)n[nH]5)cc34)ccc2c1 [CC005, 2-[((2s)-1-ethylpyrrolidin-2-yl)methoxy]-6-{5-[3-(2,2-Dimethylpropyl)(1H-1,2,4,-triazol-5-yl)](1H-indazol-3-yl)}naphthalene]",0 % of control,2 % of control,13 % of control,84 % of control,4 % of control,
"Fc1ccc(-c2n[nH]c3ccc(-c4n[nH]c(C5CCCC5)n4)cc23)cc1 [CC006, 5-(5-Cyclopentyl-1H-[1,2,4]triazol-3-yl)-3-(4-fluoro-phenyl)-1H-indazole, reference compound]",57 % of control,3 % of control,56 % of control,82 % of control,39 % of control,
"O=C(NC1CCCC1)c1cccc(-c2n[nH]c3ccc(-c4nc[nH]n4)cc23)c1 [CC007, 3-(5-(1H-1,2,4-triazol-3-yl)(1H-indazol-3-yl))phenyl-N-cyclopentylcarboxamide, reference compound]",50 % of control,3 % of control,86 % of control,79 % of control,38 % of control,
